Data set [1] addresses OASS. Also on record: method as in PMID 7547955. The following applies: earlier study; read-out: Kd, reported value; cited from earlier work.
For data set [2], the target named is T1, StOASS (O-acetylserine sulfhydrylase) (Salmonella typhimurium, UniProt P0A1E3). Briefly: PLP fluorescence titration of ligands with StOASS. It counts as binding. Also noted: His tag (N); made in house; host or cells: E. coli BL21(DE3), pET28a(+). The following applies: for change of OASS PLP fluorescence upon addition of ligand: up to ~1 mM ligand. The protocol: Titrations of ligands with StOASS were examined by monitoring changes in the active site pyridoxal 5'phosphate (PLP) fluorescence of OASS using a Varian spectrofluorometer. The excitation and emission wavelengths for monitoring PLP signal change upon ligand binding were 412 nm and 507 nm respectively. All experiments were done at 23.0 ± 1°C. Slit widths were set to 5 nm for all experiments and PMT voltage was adjusted to get maximum signal for a given protein concentration. Initial readings of both the sample, Fsamp,0 and buffer, Fbuf,0 were taken, with F0 = Fsamp,0-Fbuf,0 defined as the initial fluorescence of the sample. The sample cuvette was then titrated with aliquots of ligands and mixed, equilibrated for 2-5 minutes before measurement. Data points from five such measurements were averaged to obtain Fave,i. The relative fluorescence quenching upon ligand binding is defined as Qobs,i = (F0-Fobs,i)/F0. All measurements were corrected for dilution, and inner filter effects.
Binding of ligands to OASS was analyzed to obtain the equilibrium binding constant, Kobs = [PL]/[P]*[L], using a single or two independent site binding models (eqn 1)(1) [drawing 1]
Where n, number of binding sites, Qobs, observed fluorescence quenching and Qmax, the maximum fluorescence quenching at saturation.

The next data set concerns OASS (StOASS and HiOASS). It counts as biochemical. The following applies: purified enzymes; read-out: Km,OAS.
Data set [3] concerns the target OASS. Also noted: method as in PMID 10995767. To be noted: from Kext, single-wavelength stopped flow; cited from earlier work.
Data set [4] deals with T1, StOASS (O-acetylserine sulfhydrylase).
In data set [5] the target is HiOASS (O-acetylserine sulfhydrylase) (Haemophilus influenzae, UniProt P45040).
Substrate in data set [6]: CC(=O)OC[C@H](N)C(=O)O
The data set can be described thus: Steady state kinetic measurement of StOASS activity (ninhydrin-cysteine assay). To be noted: other: 0.1M Hepes, pH 7.5, 30 °C, 2 mM Na2S, OAS 1-10 mM. Format: biochemical, Salmonella typhimurium. The protocol: Steady state kinetic measurement of StOASS activity in the reaction buffer (as in Fig S2).
OASS activity was measured by monitoring the cysteine formation. Data were fitted to Michaelis-Menten equation using origin 5.0. The Km(OAS) was estimated to be 0.89 […]
Enzyme assay: Assay is based on the specific reaction of ninhydrin with cysteine under strong acidic conditions and monitoring of modified cysteine (ninhydrin-cysteine adduct) at 560 nm. The reaction was allowed to proceed for 20 minutes (30 °C, linear phase) with varied concentrations of OAS (1- 10 mM, 2 mM Na2S) in the reaction buffer (0.1M Hepes, pH 7.5, 150 µl reaction volume). The reaction was terminated with 5% TFA and centrifuged at 11000 rpm for 2 min. 125 µl glacial acetic acid + 125 µl acidic ninhydrin reagent were added to 125 µl of supernatant. Samples were boiled for 10 min at 100°C and cooled to room temperature. 600 µl of chilled absolute ethanol was added to the mix and the absorbance at 560 nm was used for determining the amount of cysteine present in the sample. Cysteine liberated was determined from a standard curve plotted by using known concentrations of cysteine.

Setting [7] is: 25°C, 20 mM Tris pH 8.0, 50 mM NaCl.

“Also recorded” adds a separate entry of the source. Where two headings read alike, the source gives them in different places.

Chain of HiOASS (O-acetylserine sulfhydrylase) (P45040 whole entry): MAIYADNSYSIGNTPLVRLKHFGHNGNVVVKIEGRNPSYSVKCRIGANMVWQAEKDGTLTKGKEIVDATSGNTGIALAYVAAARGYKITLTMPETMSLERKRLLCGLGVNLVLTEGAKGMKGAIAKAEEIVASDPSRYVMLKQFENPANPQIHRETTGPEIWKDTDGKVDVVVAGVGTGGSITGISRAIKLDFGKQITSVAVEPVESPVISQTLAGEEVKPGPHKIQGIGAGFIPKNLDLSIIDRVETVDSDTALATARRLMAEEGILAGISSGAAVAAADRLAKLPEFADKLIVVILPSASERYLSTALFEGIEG

Take `N[C@@H](CO)C(=O)O` [L-serine]: the Kd on OASS [1] is 4.2 mM; in data set [2] (pH 9.5, 20 mM Tris, 20 mM NaCl, read-out: Kd (equilibrium dissociation constant)) it was ~3.7 mM. For the same molecule, the “change of OASS PLP fluorescence upon addition of ligand” value in data set [2] (pH 8.0 (20 mM Tris, 20 mM NaCl)) is reported as “does not change OASS fluorescence; also recorded: does not change PLP”; in data set [2] (pH 9.5 (20 mM Tris, 20 mM NaCl)), “leads to changes in the OASS fluorescence; also recorded: increases the PLP fluorescence”.

As to `CC(=O)OC[C@H](N)C(=O)O` [OAS, O-acetylserine], the Km with OASS (StOASS and HiOASS) fell in the range of 900 to 1400 µM. For the same molecule, the Kd at OASS [3] is ~5.6 mM; in data set [4], 0.56 mM; in data set [5], ~0.77 mM. Also, the “contribution of enthalpy to total binding free energy” value in data set [4] (25°C) and in data set [5] (25°C) was “less than 3%” throughout. Besides, the apparent binding constant in data set [4] (setting [7]) is recorded as ~ 1.8 ± 0.6 × 10^3 M^-1. In addition, the ΔG is -17.6 kJ/M in data set [4] (setting [7]) and -16.9 kJ/M in data set [5] (setting [7]). Moreover, the binding constant in data set [5] (setting [7]) is ~ 1.3 ± 0.4 × 10^3 M^-1. Besides, the enthalpy value in data set [5] (setting [7]) is listed as 0.45 ± 0.3 kJ/M.

B1: StOASS (Salmonella enterica subsp. enterica serovar Typhimurium str. LT2) (protein)
chain: MSKIYEDNSLTIGHTPLVRLNRIGNGRILAKVESRNPSFSVKCRIGANMIWDAEKRGVLKPGVELVEPTSGNTGIALAYVAAARGYKLTLTMPETMSIERRKLLKALGANLVLTEGAKGMKGAIQKAEEIVASDPQKYLLLQQFSNPANPEIHEKTTGPEIWEDTDGQVDVFISGVGTGGTLTGVTRYIKGTKGKTDLITVAVEPTDSPVIAQALAGEEIKPGPHKIQGIGAGFIPGNLDLKLIDKVVGITNEEAISTARRLMEEEGILAGISSGAAVAAALKLQEDESFTNKNIVVILPSSGERYLSTALFADLFTEKELQQ
notes: His tag (N); made in house; host or cells: E. coli BL21(DE3), pET28a(+)
With B1, the Km in data set [6] came to 890 µM.

These data come from PMC3141655 (BMC Biochemistry, 2011).
